Data as given in PubChem BioAssay AID2060504 (Molecular Pharmacology Branch, DTP, NCI, 2025).

Test system: 636577-100-R-J1-PDC complex spheroid viability
Test: Anticancer human tumor 636577-100-R-J1-PDC patient-derived endometrial adenocarcinoma cell line growth inhibition [GQUAD]
Details: for IC50: curve of first compound; for viability, T/C: stronger effect = lower value; active = viability on the fitted dose curve at most 10% of control; inactive = the rest
In short: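 Viability of tumor cells grown as complex spheroids with endothelial and stromal cells, exposed to drug combinations. Top concentration at or near clinical Cmax (else 10 microM), diluted in half-log increments.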

[1] = second compound 0.0316 µM, first compound 0.0316 µM
[2] = second compound 0.0316 µM, first compound 0.1 µM
[3] = second compound 0.0316 µM, first compound 0.316 µM
[4] = second compound 0.0316 µM, first compound 1 µM
[5] = second compound 0.0316 µM, first compound 3.16 µM
[6] = second compound 0.0316 µM, first compound 10 µM
[7] = second compound 0.1 µM, first compound 0.0316 µM
[8] = second compound 0.1 µM, first compound 0.1 µM
[9] = second compound 0.1 µM, first compound 0.316 µM
[10] = second compound 0.1 µM, first compound 1 µM
[11] = second compound 0.1 µM, first compound 3.16 µM
[12] = second compound 0.1 µM, first compound 10 µM
[13] = second compound 0.316 µM, first compound 0.0316 µM
[14] = second compound 0.316 µM, first compound 0.1 µM
[15] = second compound 0.316 µM, first compound 0.316 µM
[16] = second compound 0.316 µM, first compound 1 µM
[17] = second compound 0.316 µM, first compound 3.16 µM
[18] = second compound 0.316 µM, first compound 10 µM
[19] = second compound 1 µM, first compound 0.0316 µM
[20] = second compound 1 µM, first compound 0.1 µM
[21] = second compound 1 µM, first compound 0.316 µM
[22] = second compound 1 µM, first compound 1 µM
[23] = second compound 1 µM, first compound 3.16 µM
[24] = second compound 1 µM, first compound 10 µM
[25] = second compound 3.16 µM, first compound 0.0316 µM
[26] = second compound 3.16 µM, first compound 0.1 µM
[27] = second compound 3.16 µM, first compound 0.316 µM
[28] = second compound 3.16 µM, first compound 1 µM
[29] = second compound 3.16 µM, first compound 3.16 µM
[30] = second compound 3.16 µM, first compound 10 µM
[31] = second compound 10 µM, first compound 0.0316 µM
[32] = second compound 10 µM, first compound 0.1 µM
[33] = second compound 10 µM, first compound 0.316 µM
[34] = second compound 10 µM, first compound 1 µM
[35] = second compound 10 µM, first compound 3.16 µM
[36] = second compound 10 µM, first compound 10 µM
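Also: viability read after seven days of drug exposure.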
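For viability, T/C in this document: luminescence signal used as a proxy for viable cells; 100% = DMSO vehicle control wells.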

C#Cc1c(F)ccc2cc(O)cc(-c3ncc4c(N5CC6CCC(C5)N6)nc(OCC56CCCN5CC(F)C6)nc4c3F)c12 (stereo unspecified) + CN(C)c1ccc(Nc2c3ccc(NC(=O)CCN4CCCC4)cc3nc3cc(NC(=O)CCN4CCCC4)ccc23)cc1
2.43 µM: IC50 (second compound 1 µM)
3.86 µM: IC50 (second compound 0.316 µM)
active: viability, T/C [31] 5.81% | viability, T/C [32] 4.81% | viability, T/C [33] 4.89% | viability, T/C [34] 3.78% | viability, T/C [35] 3.21% | viability, T/C [36] 0.66%
< 0.0316 µM: IC50 (second compound 3.16 µM) | IC50 (second compound 10 µM)
6.07 µM: IC50 (second compound 0.0316 µM)
inactive: viability, T/C [1] 109% | viability, T/C [2] 84.1% | viability, T/C [3] 95.4% | viability, T/C [4] 69.9% | viability, T/C [5] 72.2% | viability, T/C [6] 37.2% | viability, T/C [7] 98.6% | viability, T/C [8] 94.3% | viability, T/C [9] 85.6% | viability, T/C [10] 68% | viability, T/C [11] 49.4% | viability, T/C [12] 42.5% | viability, T/C [13] 93% | viability, T/C [14] 99.3% | viability, T/C [15] 85.7% | viability, T/C [16] 62.1% | viability, T/C [17] 59.1% | viability, T/C [18] 34.9% | viability, T/C [19] 61% | viability, T/C [20] 75.2% | viability, T/C [21] 70.5% | viability, T/C [22] 61.8% | viability, T/C [23] 46.5% | viability, T/C [24] 29.8% | viability, T/C [25] 41.7% | viability, T/C [26] 37.2% | viability, T/C [27] 38% | viability, T/C [28] 36.4% | viability, T/C [29] 22.7% | viability, T/C [30] 15.7%
3.23 µM: IC50 (second compound 0.1 µM)

CC(=O)O[C@H]1C(=O)[C@@]2(C)[C@H]([C@H](OC(=O)c3ccccc3)[C@]3(O)C[C@H](OC(=O)[C@H](O)[C@@H](NC(=O)c4ccccc4)c4ccccc4)C(C)=C1C3(C)C)[C@]1(OC(C)=O)CO[C@@H]1C[C@@H]2O + CN(C)c1ccc(Nc2c3ccc(NC(=O)CCN4CCCC4)cc3nc3cc(NC(=O)CCN4CCCC4)ccc23)cc1
< 0.0316 µM: IC50 (second compound 0.0316 µM) | IC50 (second compound 0.1 µM) | IC50 (second compound 0.316 µM) | IC50 (second compound 1 µM) | IC50 (second compound 3.16 µM) | IC50 (second compound 10 µM)
active: viability, T/C [10] 8.93% | viability, T/C [11] 9.82% | viability, T/C [12] 8.97% | viability, T/C [31] 4.59% | viability, T/C [32] 3.8% | viability, T/C [33] 2.57% | viability, T/C [34] 3.21% | viability, T/C [35] 3.16% | viability, T/C [36] 2.15%
inactive: viability, T/C [1] 20.1% | viability, T/C [2] 12.8% | viability, T/C [3] 13.3% | viability, T/C [4] 11.8% | viability, T/C [5] 11.5% | viability, T/C [6] 10.8% | viability, T/C [7] 18.8% | viability, T/C [8] 13.5% | viability, T/C [9] 11.4% | viability, T/C [13] 15.9% | viability, T/C [14] 12.3% | viability, T/C [15] 10.4% | viability, T/C [16] 12.6% | viability, T/C [17] 9.5% | viability, T/C [18] 10.1% | viability, T/C [19] 15.9% | viability, T/C [20] 12.8% | viability, T/C [21] 12.5% | viability, T/C [22] 11.6% | viability, T/C [23] 10% | viability, T/C [24] 10.4% | viability, T/C [25] 16.2% | viability, T/C [26] 12.7% | viability, T/C [27] 13.4% | viability, T/C [28] 11.6% | viability, T/C [29] 11.8% | viability, T/C [30] 11.2%

COc1cccc2c1C(=O)c1c(O)c3c(c(O)c1C2=O)CC(O)(C(=O)CO)CC3OC1CC(N)C(O)C(C)O1 (stereo unspecified) + CN(C)c1ccc(Nc2c3ccc(NC(=O)CCN4CCCC4)cc3nc3cc(NC(=O)CCN4CCCC4)ccc23)cc1
active: viability, T/C [4] 7.48% | viability, T/C [5] 0.17% | viability, T/C [6] 0.58% | viability, T/C [10] 7.46% | viability, T/C [11] 0.12% | viability, T/C [12] 0.61% | viability, T/C [16] 7.67% | viability, T/C [17] 0.2% | viability, T/C [18] 0.5% | viability, T/C [22] 7.58% | viability, T/C [23] 0.13% | viability, T/C [24] 0.47% | viability, T/C [27] 10.8% | viability, T/C [28] 3.65% | viability, T/C [29] 0.16% | viability, T/C [30] 0.34% | viability, T/C [31] 4.99% | viability, T/C [32] 3.27% | viability, T/C [33] 1.84% | viability, T/C [34] 0.34% | viability, T/C [35] 0.19% | viability, T/C [36] 0.27%
inactive: viability, T/C [1] 28% | viability, T/C [2] 17.2% | viability, T/C [3] 15.3% | viability, T/C [7] 27.2% | viability, T/C [8] 15.9% | viability, T/C [9] 15.3% | viability, T/C [13] 28% | viability, T/C [14] 18.6% | viability, T/C [15] 12.9% | viability, T/C [19] 25% | viability, T/C [20] 18.6% | viability, T/C [21] 13.3% | viability, T/C [25] 19.4% | viability, T/C [26] 17.2%
< 0.0316 µM: IC50 (second compound 0.0316 µM) | IC50 (second compound 0.1 µM) | IC50 (second compound 0.316 µM) | IC50 (second compound 1 µM) | IC50 (second compound 3.16 µM) | IC50 (second compound 10 µM)
